Results as given in patent US20210267996A1, “Compounds for inhibition of inflammation” (Children`s Medical Center Corporation, priority 2018, published 2021).

Assays:
HEK293T cells = experiment: LDH release of HEK293T cells expressing caspase-11 and GSDMD; assay type: cell-based
Experimental: FIG. 72 contains a bar graph showing results of an experiment when FL human WT or C191S GSDMD were co-expressed with caspase-11 in HEK293T cells. 8 h post transfection, the indicated amount of disulfiram was added and cell death was determined by LDH release 12 h later.
Cytotoxicity and cell viability assays: cell death and cell viability were determined by the lactate dehydrogenase release assay using the CytoTox 96 Non-Radioactive Cytotoxicity Assay kit (Promega) and by measuring ATP levels using the CellTiter-Glo Luminescent Cell Viability Assay (Promega), respectively, according to the manufacturer's instructions. Luminescence and absorbance were measured on a BioTek Synergy 2 plate reader.
To further confirm that disulfiram acts on Cys191, disulfiram inhibition of LDH release in HEK293T cells expressing caspase-11 and WT or C191S GSDMD was assessed.

IL-1β [1] = experiment: IL-1β secretion by ELISA, iBMDM with LPS transfection; assay type: cell-based, mouse; conditions: 40 μM
Experimental: (§1) Measurement of cytokines: concentrations of IL-1 (3 in culture supernatants or mouse serum were measured by ELISA kit (R&D Systems) according to the manufacturer's instructions. […] The number of surviving cells was determined by CellTiter-Glo assay (FIGS. 4 and 6) and IL-1β in culture supernatants was assessed by ELISA (FIG. 8) 2 hrs later. […] The number of surviving cells was determined by CellTiter-Glo assay (FIGS. 5 and 7) and IL-1β in culture supernatants was assessed by ELISA (FIG. 9) 2.5 hrs later.

C38A GSDMD = C38A GSDMD (Homo sapiens, UniProt P57764, C38A); experiment: Liposome leakage assay, C38A GSDMD plus caspase-11; assay type: biochemical
Chain of C38A GSDMD (P57764 whole entry C38A): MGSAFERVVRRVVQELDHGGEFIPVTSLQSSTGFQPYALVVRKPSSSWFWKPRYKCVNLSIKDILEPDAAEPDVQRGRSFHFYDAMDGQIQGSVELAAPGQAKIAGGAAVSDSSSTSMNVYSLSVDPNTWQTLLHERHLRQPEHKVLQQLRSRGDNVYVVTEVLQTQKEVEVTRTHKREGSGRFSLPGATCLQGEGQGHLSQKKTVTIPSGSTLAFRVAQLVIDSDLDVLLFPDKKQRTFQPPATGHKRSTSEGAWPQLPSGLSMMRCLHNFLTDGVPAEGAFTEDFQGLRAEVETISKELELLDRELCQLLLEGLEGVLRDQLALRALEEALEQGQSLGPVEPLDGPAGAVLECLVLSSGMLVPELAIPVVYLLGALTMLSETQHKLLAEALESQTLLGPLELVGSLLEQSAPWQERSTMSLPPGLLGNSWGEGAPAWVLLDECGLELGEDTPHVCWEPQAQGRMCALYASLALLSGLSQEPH

IL-1β [2] = experiment: IL-1β secretion by ELISA, THP-1 plus nigericin; assay type: cell-based, human; conditions: THP-1, 40 μM
Experimental: as §1

mouse iBMDMs [3] = experiment: AIM2 inflammasome cell death, iBMDMs transfected with poly(dA:dT); assay type: cell-based; conditions: poly(dA:dT) transfection
human GSDMD-3C [4] = molecular target: T1, human GSDMD-3C (Homo sapiens, UniProt P57764); experiment: Pore reconstitution on nanodiscs, negative staining EM
T1 sequence (P57764 1-271 limits assumed): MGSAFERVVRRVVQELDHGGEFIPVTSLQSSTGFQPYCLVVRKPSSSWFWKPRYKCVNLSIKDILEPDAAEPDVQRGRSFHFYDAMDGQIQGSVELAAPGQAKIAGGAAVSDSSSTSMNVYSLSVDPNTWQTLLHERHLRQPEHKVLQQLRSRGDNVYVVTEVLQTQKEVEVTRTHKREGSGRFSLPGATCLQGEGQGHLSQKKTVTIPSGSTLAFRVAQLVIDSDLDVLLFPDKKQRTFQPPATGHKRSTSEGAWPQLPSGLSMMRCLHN
Experimental: To form GSDMD pores on the nanodiscs, purified human GSDMD-3C was incubated with 3C protease in the presence of nanodiscs for 6 hrs on ice. […] For negative staining electron microscopy, a 5-μl sample was placed onto a glow-discharged carbon-coated copper grid (Electron Microscopy Sciences), washed twice with Buffer A, stained with 1% uranyl formate for 1 min, and air-dried. The grids were imaged on the Tecnai G^2 Spirit BioTWIN electron microscope and recorded with an AMT 2 k CCD camera (Harvard Medical School Electron Microscopy Facility).
3C protease cleavage of the engineered GSDMD-3C liberates an active NT fragment.

human GSDMD-3C [5] = molecular target: T2, human GSDMD-3C (Homo sapiens, UniProt P57764); experiment: Liposome leakage assay, GSDMD-3C plus 3C protease; assay type: biochemical; conditions: GSDMD-3C plus 3C protease
T2 construct: other: GSDMD-3C plus 3C protease; fused on or other part: His6-MBP tag, removed by TEV before use; The engineered 3C site is cut in the well by 3C protease and sets free GSDMD-NT
Experimental: (§2) Liposome leakage assay: fluorogenic liposome leakage assay detects leakage of Tb^3+ from Tb^3+-loaded liposomes incubated with GSDMD and caspase-11 (See References 7 and 9). Liposome leakage was detected by an increase in fluorescence when Tb^3+ bound to dipicolinic acid (DPA) in Buffer C. […] The fluorescence intensity of the well was measured at 545 nm with an excitation of 276 nm 1 hr after addition of caspase-11 using a Perkin Elmer EnVision plate reader. The final percent inhibition was calculated as [(fluorescencetest compound−fluorescencenegative control)/(fluorescencepositive control−fluorescencenegative control)]×100, where a well with GSDMD without the test compound was used as positive control, and a well without caspase-11 was used as negative control.
(§3) [LC retention time. […] (b).
(§4) To determine the relative contribution of caspase-11 inhibition versus GSDMD inhibition by disulfiram in pore formation, the caspase cleavage site in GSDMD was replaced with the rhinovirus 3C protease site (GSDMD-3C) and the 3C protease was used instead of caspase-11 in the liposome leakage assay.

mouse iBMDMs [6] = experiment: Processing of caspase-1, GSDMD and IL-1β in iBMDMs (immunoblot); assay type: cell-based; conditions: 1 hr time point
Experimental: (§5) FIG. 97 contains a bar graph showing results of an experiment where LPS-primed THP-1 cells, after medium removal, were incubated with probe FAM-YVAD-FMK in FLICA assay buffer for another 0.5 hr before fluorescence reading. iBMDMs were pretreated with disulfiram, Bay 11-7082, necrosulfonamide (NSA) or z-VAD-fmk for 1 hr before treated or not with Nigericin for 0.5 hr. Whole cell lysates and culture supernatants were immunoblotted with the indicated antibodies.
as §5, with “FIG. 98” for “FIG. 97”, “for 1” for “for 0.5”
Canonical inflammasome assembly activates caspase-1, which cleaves pro-IL-1β and GSDMD, and the latter is needed to release processed IL-1β and to induce pyroptosis. To assess which steps in NLRP3-mediated inflammation were inhibited post ASC speck formation, LPS-primed THP-1 cells were treated with vehicle, 30 μM z-VAD-fmk or disulfiram 1 hour before adding nigericin, and cleavage and activation of caspase-1, GSDMD, and pro-IL-1β were analysed by immunoblot of whole cell lysates 30 min later and 1 hr later. Secretion of processed IL-1β was also assessed by immunoblot of culture supernatants. […] The 1 hr time point is relevant as the cell death and IL-1β release measurements used cells stimulated with nigericin for 1 and 2 hrs, respectively.

human GSDMD-3C [7] = molecular target: T1, human GSDMD-3C; experiment: Liposome leakage assay, GSDMD-3C plus 3C protease; assay type: biochemical; parameters: Human GSDMD-3C and mouse GSDMA3-3C mutants were constructed by QuikChange Mutagenesis (Agilent Technologies); fused on or other part: His6-MBP tag, removed by TEV before use; The engineered 3C site is cut in the well by 3C protease
Experimental: as §2, §3, §4

SMILES	C191S GSDMD-induced cell death (LDH release) (HEK293T cells; caspase-11 plus C191S GSDMD)	WT GSDMD-induced cell death (LDH release) (HEK293T cells; caspase-11 plus WT GSDMD)	LPS transfection-induced IL-1β secretion (IL-1β [1])	IC50 (C38A GSDMD) [nM]	nigericin-induced IL-1β secretion (IL-1β [2])	cell death triggered by the AIM2 inflammasome (mouse iBMDMs [3])	effect on already assembled pores (human GSDMD-3C [4]; added after pore formation)	pore formation on nanodiscs (human GSDMD-3C [4]; pretreated before adding to nanodiscs)	IC50 (human GSDMD-3C [5]) [nM]	processing of caspase-1, GSDMD and IL-1β (mouse iBMDMs [6])	inhibition of leakage by GSDMD-3C plus 3C protease versus GSDMD plus caspase-11 (human GSDMD-3C [7])
CCN(CC)C(=S)SSC(=S)N(CC)CC [C-23, Tetraethylthiuram disulfide]	only inhibited when 4 times as much disulfiram was added	strongly inhibited	potency comparable to the pan-caspase inhibitor z-VAD-fmk	~300	potency comparable to the pan-caspase inhibitor z-VAD-fmk	impaired cell death in a dose-dependent manner	did not disrupt already assembled pores	completely blocked	520 ± 30		
Cc1ccc(S(=O)(=O)/C=C/C#N)cc1 [Bay 11-7082]										still inhibited processing	substantially less able to inhibit leakage
